Test results: US7238701B2, “Substituted tetrahydrobenzothienopyrimidinamine compounds useful for treating hyper-proliferative disorders” (Bayer Pharmaceuticals Corporation, priority 2003, dated 2007)

Experiments:
[1] = test system: A431cells (human epidermoid carcinoma); assay: In vitro tumor cell proliferation assay (Cell Titer-Glo luminescent cell viability), A431 cells; assay type: cell-based; settings: A-431, 72 h, 72 hours drug exposure, 10% Fetal Bovine Serum, ATP luminescence readout, read-out: IC50 (50% inhibition of cell proliferation)
From the text: (§1) In vitro Tumor Cell Proliferation Assay
(§2) The tumor cell proliferation assay used to test the compounds of the present invention involves a readout called Cell Titer-Glow® Luminescent Cell Viability Assay developed by Promega (Cunningham, B A “A Growing Issue: Cell Proliferation Assays, Modern kits ease quantification of cell growth” The Scientist 2001, 15(13), 26, and Crouch, S P et al., “The use of ATP bioluminescence as a measure of cell proliferation and cytotoxicity” Journal of Immunological Methods 1993, 160, 81–88), that measures inhibition of cell proliferation. Generation of a luminescent signal corresponds to the amount of ATP present, which is directly proportional to the number of metabolically active (proliferating) cells.
(§3) A431cells (human epidermoid carcinoma, ATCC # HTB-20) and BT474 (human breast carcinoma, ATCC # CRL-1555) were plated at a density of 2.5×10^3 cells/well in 96 well black-clear bottom tissue culture plates in RPMI media with 10% Fetal Bovine Serum and incubated at 37° C. Twenty-four hours later, test compounds are added at a final concentration range from as high 100 μM to as low 64 pM depend on the activities of the tested compounds in serial dilutions at a final DMSO concentration of 0.1%. Cells were incubated for 72 hours at 37° C. in complete growth media after addition of the test compound. After 72 hours of drug exposure, the plates were equilibrated to room temperature for approximately 30 min. Then, using a Promega Cell Titer Glo Luminescent® assay kit, lysis buffer containing 100 microliters of the enzyme luciferase and its substrate, luciferin mixture, was added to each well. The plates were mixed for 2 min on orbital shaker to ensure cell lysis and incubated for 10 min at room temperature to stabilize luminescence signal. The samples were read on VICTOR 2 using Luminescence protocol, and analyzed with Analyze5 software to generate IC50 values.

[2] = test system: BT474 (human breast carcinoma); assay: In vitro tumor cell proliferation assay (Cell Titer-Glo luminescent cell viability), BT474 cells; assay type: cell-based; settings: BT-474, 72 hours drug exposure, 10% Fetal Bovine Serum, ATP luminescence readout, read-out: IC50 (50% inhibition of cell proliferation)
From the text: as §1, §2, §3

| Structure (SMILES) | IC50 [1] | IC50 [2] |
| --- | --- | --- |
| CN1CCN(CCC2CCc3c(sc4ncnc(Nc5cccc(Br)c5)c34)C2)CC1 (stereo not drawn) [Example 80, N-(3-bromophenyl)-7-[2-(4-methyl-1-piperazinyl)ethyl]-5,6,7,8-tetrahydro[1]benzothieno[2,3-d]pyrimidin-4-amine] | < 5 µM | < 5 µM |
| O=C(CC1CCc2c(sc3ncnc(Nc4cccc(Br)c4)c23)C1)N1CCCC1 (stereo not drawn) [Example 81, N-(3-bromophenyl)-7-[2-oxo-2-(1-pyrrolidinyl)ethyl]-5,6,7,8-tetrahydro[1]benzothieno[2,3-d]pyrimidin-4-amine] | < 50 µM | < 50 µM |
| COCCNC(=O)CC1CCc2c(sc3ncnc(Nc4cccc(Br)c4)c23)C1 (stereo not drawn) [Example 82, 2-{4-[(3-bromophenyl)amino]-5,6,7,8-tetrahydro[1]benzothieno[2,3-d]pyrimidin-7-yl}-N-(2-methoxyethyl)acetamide] | < 5 µM | < 5 µM |
| COCCN(C)C(=O)CC1CCc2c(sc3ncnc(Nc4cccc(Br)c4)c23)C1 (stereo not drawn) [Example 83, 2-{4-[(3-bromophenyl)amino]-5,6,7,8-tetrahydro[1]benzothieno[2,3-d]pyrimidin-7-yl}-N-(2-methoxyethyl)-N-methylacetamide] | < 5 µM | < 50 µM |
| CS(=O)(=O)CCNCCC1CCc2c(sc3ncnc(Nc4cccc(Br)c4)c23)C1 (stereo not drawn) [Example 84, N-(3-bromophenyl)-7-(2-{[2-(methylsulfonyl)ethyl]amino}ethyl)-5,6,7,8-tetrahydro[1]benzothieno[2,3-d]pyrimidin-4-amine] | < 5 µM | < 5 µM |
| Brc1cccc(Nc2ncnc3sc4c(c23)CCC(CCN2CCCC2)C4)c1 (stereo not drawn) [Example 85, N-(3-bromophenyl)-7-[2-(1-pyrrolidinyl)ethyl]-5,6,7,8-tetrahydro[1]benzothieno[2,3-d]pyrimidin-4-amine] | < 5 µM | < 5 µM |
| COCCNCCC1CCc2c(sc3ncnc(Nc4cccc(Br)c4)c23)C1 (stereo not drawn) [Example 86, N-(3-bromophenyl)-7-{2-[(2-methoxyethyl)amino]ethyl}-5,6,7,8-tetrahydro[1]benzothieno[2,3-d]pyrimidin-4-amine] | < 5 µM | < 5 µM |
| COCCN(C)CCC1CCc2c(sc3ncnc(Nc4cccc(Br)c4)c23)C1 (stereo not drawn) [Example 87, N-(3-bromophenyl)-7-{2-[(2-methoxyethyl)(methyl)amino]ethyl}-5,6,7,8-tetrahydro[1]benzothieno[2,3-d]pyrimidin-4-amine] | < 5 µM | < 5 µM |
| Brc1cccc(Nc2ncnc3sc4c(c23)CCC(CCn2ccnc2)C4)c1 (stereo not drawn) [Example 88, N-(3-bromophenyl)-7-[2-(1H-emidazol-1-yl)ethyl]-5,6,7,8-tetrahydro[1]benzothieno[2,3-d]pyrimidin-4-amine] | < 5 µM | < 5 µM |
| COc1ccc(NCCC2CCc3c(sc4ncnc(Nc5cccc(Br)c5)c34)C2)cc1 (stereo not drawn) [Example 89, N-(3-bromophenyl)-7-{2-[(4-methoxyphenyl)amino]ethyl}-5,6,7,8-tetrahydro[1]benzothieno[2,3-d]pyrimidin-4-amine] | < 50 µM | < 50 µM |
| COCCC1CCc2c(sc3ncnc(Nc4cccc(Br)c4)c23)C1 (stereo not drawn) [Example 90, N-(3-bromophenyl)-7-(2-methoxyethyl)-5,6,7,8-tetrahydro[1]benzothieno[2,3-d]pyrimidin-4-amine] | < 50 µM | < 50 µM |
| COCCN1CCN(C(=O)CC2CCc3c(sc4ncnc(Nc5cccc(Br)c5)c34)C2)CC1 (stereo not drawn) [Example 91, N-(3-bromophenyl)-7-{2-[4-(2-methoxyethyl)-1-piperazinyl]-2-oxoethyl}-5,6,7,8-tetrahydro[1]benzothieno[2,3-d]pyrimidin-4-amine] | < 50 µM | < 50 µM |
| CN(C)[C@@H]1CCN(C(=O)CC2CCc3c(sc4ncnc(Nc5cccc(Br)c5)c34)C2)C1 (stereo partly drawn) [Example 92, N-(3-bromophenyl)-7-{2-[(3R)-3-(dimethylamino)-1-pyrrolidinyl]-2-oxoethyl}-5,6,7,8-tetrahydro[1]benzothieno[2,3-d]pyrimidin-4-amine] | < 5 µM | < 5 µM |
| COCCN1CCN(CCC2CCc3c(sc4ncnc(Nc5cccc(Br)c5)c34)C2)CC1 (stereo not drawn) [Example 93, N-(3-bromophenyl)-7-{2-[4-(2-methoxyethyl)-1-piperazinyl]ethyl}-5,6,7,8-tetrahydro[1]benzothieno[2,3-d]pyrimidin-4-amine] | < 5 µM | < 5 µM |
| CN(C)[C@@H]1CCN(CCC2CCc3c(sc4ncnc(Nc5cccc(Br)c5)c34)C2)C1 (stereo partly drawn) [Example 94, N-(3-bromophenyl)-7-{2-[(3R)-3-(dimethylamino)-1-pyrrolidinyl]ethyl}-5,6,7,8-tetrahydro[1]benzothieno[2,3-d]pyrimidin-4-amine] | < 5 µM | < 5 µM |
| CC(C)(O)CC1CCc2c(sc3ncnc(Nc4cccc(Br)c4)c23)C1 (stereo not drawn) [Example 95, 1-{4-[(3-bromophenyl)amino]-5,6,7,8-tetrahydro[1]benzothieno[2,3-d]pyrimidin-7-yl}-2-methyl-2-propanol] | < 50 µM | < 5 µM |
| COCCN(C)CCC1CCc2c(sc3ncnc(Nc4ccc(F)c(Cl)c4)c23)C1 (stereo not drawn) [Example 96, N-(3-chloro-4-fluorophenyl)-7-{2-[(2-methoxyethyl)(methyl)amino]ethyl}-5,6,7,8-tetrahydro[1]benzothieno[2,3-d]pyrimidin-4-amine] | < 5 µM | < 5 µM |
| CS(=O)(=O)CCNCCC1CCc2c(sc3ncnc(Nc4ccc(F)c(Cl)c4)c23)C1 (stereo not drawn) [Example 97, N-(3-chloro-4-fluorophenyl)-7-(2-{[(2-methylsulfonyl)ethyl]amino}ethyl)-5,6,7,8-tetrahydro[1]benzothieno[2,3-d]pyrimidin-4-amine] | < 5 µM | < 5 µM |
| CN(C)CCNCCC1CCc2c(sc3ncnc(Nc4ccc(F)c(Cl)c4)c23)C1 (stereo not drawn) [Example 98, N^1-(2-{4-[(3-chloro-4-fluorophenyl)amino]-5,6,7,8-tetrahydro[1]benzothieno[2,3-d]pyrimidin-7-yl}ethyl)-N^2,N^2-dimethyl-1,2-ethanediamine] | < 5 µM | < 5 µM |
| Fc1ccc(Nc2ncnc3sc4c(c23)CCC(CCN2CCN(Cc3ccncc3)CC2)C4)cc1Cl (stereo not drawn) [Example 99, N-(3-chloro-4-fluorophenyl)-7-{2-[4-(4-pyridinylmethyl)-1-piperazinyl]ethyl}-5,6,7,8-tetrahydro[1]benzothieno[2,3-d]pyrimidin-4-amine] | < 50 µM | < 5 µM |
| CN(C)[C@@H]1CCN(CCC2CCc3c(sc4ncnc(Nc5ccc(F)c(Cl)c5)c34)C2)C1 (stereo partly drawn) [Example 100, N-(3-chloro-4-fluorophenyl)-7-{2-[(3R)-3-(dimethylamino)-1-pyrrolidinyl]ethyl}-5,6,7,8-tetrahydro[1]benzothieno[2,3-d]pyrimidin-4-amine] | < 50 µM | < 50 µM |
| COCCC1CCc2c(sc3ncnc(Nc4ccc(F)c(Cl)c4)c23)C1 (stereo not drawn) [Example 101, N-(3-chloro-4-fluorophenyl)-7-(2-methoxyethyl)-5,6,7,8-tetrahydro[1]benzothieno[2,3-d]pyrimidin-4-amine] | < 50 µM | < 5 µM |
| OCCC1CCc2c(sc3ncnc(Nc4cccc(Br)c4)c23)C1 (stereo not drawn) [Example 102, 2-{4-[(3-bromophenyl)amino]-5,6,7,8-tetrahydro[1]benzothieno[2,3-d]pyrimidin-7-yl}ethanol] | < 50 µM | < 50 µM |
| O=C(CC1CCc2c(sc3ncnc(Nc4cccc(Br)c4)c23)C1)N1CCN(Cc2ccncc2)CC1 (stereo not drawn) [Example 103, N-(3-bromophenyl)-7-{2-oxo-2-[4-(4-pyridinylmethyl)-1-piperazinyl]ethyl}-5,6,7,8-tetrahydro[1]benzothieno[2,3-d]pyrimidin-4-amine] | < 50 µM | < 5 µM |
| CN1CCN(C(=O)CC2CCc3c(sc4ncnc(Nc5ccc(Br)cc5F)c34)C2)CC1 (stereo not drawn) [Example 105, N-(4-bromo-2-fluorophenyl)-7-[2-(4-methyl-1-piperazinyl)-2-oxoethyl]-5,6,7,8-tetrahydro[1]benzothieno[2,3-d]pyrimidin-4-amine] | < 5 µM | < 5 µM |
| CCOC(=O)CC1CCc2c(sc3ncnc(Nc4ccc(OCc5cccc(F)c5)c(Cl)c4)c23)C1 (stereo not drawn) [Example 136, {4-[3-Chloro-4-(3-fluoro-benzyloxy)-phenylamino]-5,6,7,8-tetrahydro-benzo[4,5]thieno[2,3-d]pyrimidin-7-yl}-acetic acid ethyl ester] | < 50 µM | < 5 µM |
| OCCC1CCc2c(sc3ncnc(Nc4ccc(OCc5cccc(F)c5)c(Cl)c4)c23)C1 (stereo not drawn) [Example 137, 2-{4-[3-Chloro-4-(3-fluoro-benzyloxy)-phenylamino]-5,6,7,8-tetrahydro-benzo[4,5]thieno[2,3-d]pyrimidin-7-yl}-ethanol] | < 50 µM | < 5 µM |
